According to ChEMBL document CHEMBL1130994, “3-trifluoromethylcarbacephems: synthesis of broad spectrum antibacterial compounds” (1998):
≈ marks a conversion by molar mass, not a printed value.

Assays:
Format in all cases: functional
Acinetobacter = test: Compound was evaluated for inhibitory activity against AC12 Acinetobacter
Citrobacter = test: Compound was evaluated for inhibitory activity against CF17 Citrobacter
Enterobacter cloacae [1] = test: Compound was evaluated for inhibitory activity against 265a Enterobacter cloacae beta-lactamase
Enterobacter cloacae [2] = test: Compound was evaluated for inhibitory activity against EB5 Enterobacter cloacae
Escherichia coli [3] = test: Compound was evaluated for inhibitory activity against EC14 Escherichia coli sensitive
Escherichia coli [4] = test: Compound was evaluated for inhibitory activity against TEM Escherichia coli beta-lactamase
Klebsiella aerogenes [5] = test: Compound was evaluated for inhibitory activity against EB17 Enterobacter aerogenes
Enterococcus faecalis = test: Compound was evaluated for inhibitory activity against 2041 Enterococcus faecalis Gp.D streptococcus penicillin susceptible
Klebsiella aerogenes [6] = test: Compound was evaluated for inhibitory activity against C32 Enterobacter aerogenes
Haemophilus influenzae [7] = test: Compound was evaluated for inhibitory activity against 76 Haemophilus influenzae beta-lactamase
Haemophilus influenzae [8] = test: Compound was evaluated for inhibitory activity against C.L Haemophilus influenzae ampicillin sensitive
Klebsiella pneumoniae [9] = test: Compound was evaluated for inhibitory activity against KAE Klebsiella pneumoniae
Klebsiella pneumoniae [10] = test: Compound was evaluated for inhibitory activity against X26 Klebsiella pneumoniae
Morganella morganii = test: Compound was evaluated for inhibitory activity against PR15 Morganella morganii
Providencia rettgeri = test: Compound was evaluated for inhibitory activity against C24 Providencia rettgeri
Providencia stuartii = test: Compound was evaluated for inhibitory activity against PR33 Providencia stuartii
Salmonella [11] = test: Compound was evaluated for inhibitory activity against X514 Salmonella
Serratia [12] = test: Compound was evaluated for inhibitory activity against SE3 Serratia
Serratia [13] = test: Compound was evaluated for inhibitory activity against X99 Serratia
Streptococcus pyogenes = test: Compound was evaluated for inhibitory activity against C203 Streptococcus pyogenes Gp.A
Staphylococcus aureus [14] = test: Compound was evaluated for inhibitory activity against S13E Staphylococcus aureus methicillin resistant penicillin resistant macrolide sensitive (PBP2a producer)
Staphylococcus aureus [15] = test: Compound was evaluated for inhibitory activity against X1.1 Staphylococcus aureus penicillin sensitive
Staphylococcus aureus [16] = test: Compound was evaluated for inhibitory activity against X400S Staphylococcus aureus methicillin resistant and macrolide resistant
Streptococcus pneumoniae = test: Compound was evaluated for inhibitory activity against Park S Streptococcus pneumoniae
Salmonella [17] = test: Compound was evaluated for minimum inhibitory concentration against X514 Salmonella

Compound	MIC (Acinetobacter)	MIC (Citrobacter)	MIC (Enterobacter cloacae [1])	MIC (Enterobacter cloacae [2])	MIC (Escherichia coli [3])	MIC (Escherichia coli [4])	MIC (Klebsiella aerogenes [5])	MIC (Enterococcus faecalis)	MIC (Klebsiella aerogenes [6])	MIC (Haemophilus influenzae [7])	MIC (Haemophilus influenzae [8])	MIC (Klebsiella pneumoniae [9])	MIC (Klebsiella pneumoniae [10])	MIC (Morganella morganii)	MIC (Providencia rettgeri)	MIC (Providencia stuartii)	MIC (Serratia [12])	MIC (Serratia [13])	MIC (Streptococcus pyogenes)	MIC (Staphylococcus aureus [14])	also measured
CS(=O)(=O)Nc1cccc([C@@H](N)C(=O)N[C@@H]2C(=O)N3C(C(=O)O)=C(C(F)(F)F)CC[C@H]23)c1	64 µM (≈ 30.5 µg/mL)	16 µM (≈ 7.62 µg/mL)	32 µM (≈ 15.2 µg/mL)	16 µM (≈ 7.62 µg/mL)	0.5 µM (≈ 0.238 µg/mL)	1 µM (≈ 0.476 µg/mL)	4 µM (≈ 1.91 µg/mL)	16 µM (≈ 7.62 µg/mL)	2 µM (≈ 0.953 µg/mL)	2 µM (≈ 0.953 µg/mL)	2 µM (≈ 0.953 µg/mL)	16 µM (≈ 7.62 µg/mL)	0.5 µM (≈ 0.238 µg/mL)	8 µM (≈ 3.81 µg/mL)	16 µM (≈ 7.62 µg/mL)	8 µM (≈ 3.81 µg/mL)	32 µM (≈ 15.2 µg/mL)	16 µM (≈ 7.62 µg/mL)	0.06 µM (≈ 0.0286 µg/mL)	16 µM (≈ 7.62 µg/mL)	MIC (Salmonella [11]): 2 µM (≈ 0.953 µg/mL); MIC (Staphylococcus aureus [15]): 2 µM (≈ 0.953 µg/mL); MIC (Staphylococcus aureus [16]): 16 µM (≈ 7.62 µg/mL); MIC (Streptococcus pneumoniae): 0.13 µM (≈ 0.0619 µg/mL)
N[C@@H](C(=O)N[C@@H]1C(=O)N2C(C(=O)O)=C(C(F)(F)F)CC[C@H]12)c1ccc(O)c(Cl)c1	32 µM (≈ 13.9 µg/mL)	4 µM (≈ 1.74 µg/mL)	16 µM (≈ 6.94 µg/mL)	8 µM (≈ 3.47 µg/mL)	0.5 µM (≈ 0.217 µg/mL)	1 µM (≈ 0.434 µg/mL)	1 µM (≈ 0.434 µg/mL)	4 µM (≈ 1.74 µg/mL)	2 µM (≈ 0.868 µg/mL)	0.5 µM (≈ 0.217 µg/mL)	0.5 µM (≈ 0.217 µg/mL)	4 µM (≈ 1.74 µg/mL)	0.13 µM (≈ 0.0564 µg/mL)	4 µM (≈ 1.74 µg/mL)	4 µM (≈ 1.74 µg/mL)	4 µM (≈ 1.74 µg/mL)	16 µM (≈ 6.94 µg/mL)	4 µM (≈ 1.74 µg/mL)	0.03 µM (≈ 0.013 µg/mL)	8 µM (≈ 3.47 µg/mL)	MIC (Salmonella [11]): 0.125 µM (≈ 0.0542 µg/mL); MIC (Staphylococcus aureus [15]): 1 µM (≈ 0.434 µg/mL); MIC (Staphylococcus aureus [16]): 8 µM (≈ 3.47 µg/mL); MIC (Streptococcus pneumoniae): 0.06 µM (≈ 0.026 µg/mL)
Cc1cccc([C@@H](N)C(=O)N[C@@H]2C(=O)N3C(C(=O)O)=C(C(F)(F)F)CC[C@H]23)c1	32 µM (≈ 12.7 µg/mL)	16 µM (≈ 6.36 µg/mL)	32 µM (≈ 12.7 µg/mL)	16 µM (≈ 6.36 µg/mL)	2 µM (≈ 0.795 µg/mL)	4 µM (≈ 1.59 µg/mL)	4 µM (≈ 1.59 µg/mL)	8 µM (≈ 3.18 µg/mL)	32 µM (≈ 12.7 µg/mL)	2 µM (≈ 0.795 µg/mL)	1 µM (≈ 0.397 µg/mL)	16 µM (≈ 6.36 µg/mL)	1 µM (≈ 0.397 µg/mL)	8 µM (≈ 3.18 µg/mL)	16 µM (≈ 6.36 µg/mL)	8 µM (≈ 3.18 µg/mL)	32 µM (≈ 12.7 µg/mL)	16 µM (≈ 6.36 µg/mL)	0.03 µM (≈ 0.0119 µg/mL)	4 µM (≈ 1.59 µg/mL)	MIC (Salmonella [11]): 8 µM (≈ 3.18 µg/mL); MIC (Staphylococcus aureus [15]): 1 µM (≈ 0.397 µg/mL); MIC (Staphylococcus aureus [16]): 4 µM (≈ 1.59 µg/mL); MIC (Streptococcus pneumoniae): 0.25 µM (≈ 0.0993 µg/mL)
N[C@@H](C(=O)N[C@@H]1C(=O)N2C(C(=O)O)=C(C(F)(F)F)CC[C@H]12)c1ccc(F)cc1	64 µM (≈ 25.7 µg/mL)	8 µM (≈ 3.21 µg/mL)	8 µM (≈ 3.21 µg/mL)	8 µM (≈ 3.21 µg/mL)	1 µM (≈ 0.401 µg/mL)	1 µM (≈ 0.401 µg/mL)	8 µM (≈ 3.21 µg/mL)	32 µM (≈ 12.8 µg/mL)	8 µM (≈ 3.21 µg/mL)	1 µM (≈ 0.401 µg/mL)	0.5 µM (≈ 0.201 µg/mL)	8 µM (≈ 3.21 µg/mL)	0.5 µM (≈ 0.201 µg/mL)	16 µM (≈ 6.42 µg/mL)	8 µM (≈ 3.21 µg/mL)	8 µM (≈ 3.21 µg/mL)	32 µM (≈ 12.8 µg/mL)	16 µM (≈ 6.42 µg/mL)	0.06 µM (≈ 0.0241 µg/mL)	32 µM (≈ 12.8 µg/mL)	MIC (Salmonella [17]): 0.5 µM (≈ 0.201 µg/mL); MIC (Staphylococcus aureus [15]): 1 µM (≈ 0.401 µg/mL); MIC (Staphylococcus aureus [16]): 64 µM (≈ 25.7 µg/mL); MIC (Streptococcus pneumoniae): 0.25 µM (≈ 0.1 µg/mL)
N[C@@H](C(=O)N[C@@H]1C(=O)N2C(C(=O)O)=C(Cl)CS[C@H]12)c1ccccc1 [CEFACLOR ANHYDROUS]	128 µM (≈ 47.1 µg/mL)	128 µM (≈ 47.1 µg/mL)	128 µM (≈ 47.1 µg/mL)	32 µM (≈ 11.8 µg/mL)	1 µM (≈ 0.368 µg/mL)	2 µM (≈ 0.736 µg/mL)	8 µM (≈ 2.94 µg/mL)	32 µM (≈ 11.8 µg/mL)	32 µM (≈ 11.8 µg/mL)	1 µM (≈ 0.368 µg/mL)	2 µM (≈ 0.736 µg/mL)	128 µM (≈ 47.1 µg/mL)	0.25 µM (≈ 0.092 µg/mL)	128 µM (≈ 47.1 µg/mL)	64 µM (≈ 23.5 µg/mL)	64 µM (≈ 23.5 µg/mL)	128 µM (≈ 47.1 µg/mL)	64 µM (≈ 23.5 µg/mL)	0.06 µM (≈ 0.0221 µg/mL)	128 µM (≈ 47.1 µg/mL)	MIC (Salmonella [11]): 0.5 µM (≈ 0.184 µg/mL); MIC (Staphylococcus aureus [15]): 0.5 µM (≈ 0.184 µg/mL); MIC (Staphylococcus aureus [16]): 128 µM (≈ 47.1 µg/mL); MIC (Streptococcus pneumoniae): 0.5 µM (≈ 0.184 µg/mL)
